Data as given in patent US10857209B2, “Lysosomal acid lipase and PPAR gamma ligands as immune therapies for cancer treatment” (Indiana University Research and Technology Corporation, priority 2016, dated 2020).

Key:
Assay type in all cases: cell-based, mouse
[1] = tested on: HD1B cells; test: Mitochondrial membrane potential assay (JC1) in HD1A and HD1B cells; conditions: for mitochondrial membrane potential (JC-1 staining): NAC 100 μM or Tempol 10 μM overnight
Procedure: (§1) HD1A and HD1B cells were grown in 24-well plates to the desired confluence. Cells were treated with solvent (DMSO, 0.1%), rapamycin (40 nM), or PP242 (40 nM) for 1 hour, or NAC (100 μM, Sigma-Aldrich), or Tempol (10 μM, Sigma-Aldrich) overnight. Treated cells were replaced with the pre-warmed (37° C.) medium containing JC1 (5 μM, Molecular Probes) for 1 hour. Labeled cells were replaced with fresh medium and examined under the Nikon inverted fluorescence microscope.

[2] = tested on: HD1B cells; test: ROS measurement by flow cytometry in HD1A and HD1B cells; conditions: 40 nM, 60 minutes
Procedure: HD1A and HD1B cells were treated with solvent, rapamycin (40 nM), or PP242 (40 nM) for 60 minutes. Cells were washed and stained with 2 μM of 2′,7′-dichlorodihydrofluorescein diacetate stained (DCFDA, Invitrogen) which is nonfluorescent until the acetate group is removed by intracellular esterases and oxidation occurs within the cell (Invitrogen). The incubation was at 37° C. for 20 minutes, followed by washing with cold PBS. The ROS level was measured by flow cytometry.

[3] = tested on: mTOR signaling pathway; test: Western blot of mTOR downstream effector S6 phosphorylation in HD1A and HD1B cells
Procedure: HD1A and HD1B cells were lysed in the Cell Lytic M mammalian cell lysis/extraction buffer (Sigma-Aldrich) according to the manufacturer's instruction. Protein samples were fractionated on a Novex 4-20% Tris-Glycine Mini Gel (Invitrogen). After transferring to the polyvinylidene difluoride membrane (Bio-Rad), the membrane was blotted with 5% nonfat dry milk in 1×PBS, and incubated with rabbit anti-p-S6 (Ser235/236), anti-S6, anti-p-Drp1 (Ser616), anti-Drp1, and anti-actin primary antibodies (from Cell Signaling), or rat anti-LAMP1, rabbit anti-Opa1 antibodies (from Santa Cruz). Following incubation with the secondary antibody that conjugated with horse radish peroxidase, proteins were visualized with chemiluminescent substrate (Thermo Scientific) under ChemiDox MP Image System.
as §1

SMILES | mitochondrial membrane potential (JC-1 staining) [1] | ROS production [2] | mitochondrial membrane potential (JC1 staining) ([1]; mTOR inhibitor 40 nM, 1 hour) | mTOR downstream effector S6 phosphorylation [3]
CC(=O)N[C@@H](CS)C(=O)O [NAC] | partially improved the condition of the mitochondrial membrane potential | – | – | –
CC(C)n1nc(-c2cc3cc(O)ccc3[nH]2)c2c(N)ncnc21 [PP242] | – | decreased ROS production | reversed the damaged mitochondrial membrane potential | blocked mTOR downstream effector S6 phosphorylation
CC1(C)CC(O)CC(C)(C)N1[O] [TEMPOL] | partially improved the condition of the mitochondrial membrane potential | – | – | –
